Here are results for nine molecules from publication PMC6445123 (Scientific Reports, 2019).

What is called IC50 is the midpoint of a concentration-inhibition curve. Usually Km stands for the concentration of substrate that gives half-maximal velocity. In general, kcat refers to the number of substrate molecules converted per active site and unit of time at saturation.

Residue numbers refer to the chain shown, from its start. Names and notes keep the numbering of the source. Marks after values point to notes of the source that are not given here.

Data set [1] deals with T1, recombinant active Casp6 (Casp6-WT) (Homo sapiens, UniProt P55212, INS179NQTEKLDTNITEVD).
T1 construct: generating mainly large subunit with a linker (LS-L), small subunit (SS), and a minor amount of large subunit (LS); His (C); made in house; host or cells: E. coli BL21(DE3)pLysS
T1 sequence (P55212 24-193 limits assumed): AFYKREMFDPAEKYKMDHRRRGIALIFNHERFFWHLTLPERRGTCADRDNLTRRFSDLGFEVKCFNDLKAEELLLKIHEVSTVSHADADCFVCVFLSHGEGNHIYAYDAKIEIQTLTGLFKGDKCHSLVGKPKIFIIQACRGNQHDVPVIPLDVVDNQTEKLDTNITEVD
T1 sequence (P55212 194-293 limits assumed): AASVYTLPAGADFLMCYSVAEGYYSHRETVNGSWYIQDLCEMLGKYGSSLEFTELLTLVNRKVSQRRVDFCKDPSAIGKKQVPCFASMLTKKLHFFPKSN
The data set is described as follows: Fluorescence-based Ac-VEID-AFC cleavage assay (Casp6 activity, IC50 determination). It is filed as biochemical. As to conditions: for % Inhibition with 100 µM compound (fluorescence assay) / IC50: 10 µM Ac-VEID-AFC; for % Inhibition with 100 µM compound (fluorescence assay): 20 nM Casp6, relative to 1% DMSO control; for fold increase in IC50 (reduction in potency) compared to C13: Casp6-WT; for IC50: fluorescence assay, 20 nM Casp6 active sites, read-out: IC50. On the procedure: To assess the potency of in silico hits, a fluorescence-based Ac-VEID-AFC cleavage assay was used to measure recombinant active Casp6 reaction rate in the absence or presence of 100 µM concentration of compounds. A 30% inhibition cut off was arbitrarily chosen for further investigation of putative inhibitors. […] AFC signal interference by compound intrinsic fluorescence was ruled out (Fig. S4). Casp6 inhibition was confirmed for seven compounds (C7, C13, C14, S2, S10, S11 and S13) using a colorimetric Ac-VEID-pNA cleavage assay (Table 2, Fig. S3).
(§1) Casp6 active sites were quantified using zVAD-FMK (N-benzyloxycarbonyl-Val-Ala-Asp-(O-methyl)-fluoromethylketone, MP Biomedicals, Santa Ana, CA, USA)[51],[64]. Casp6 activity was measured in Stennicke’s buffer (SB: 20 mM piperazine-N,N′-bis-(2-ethanesulfonic acid) pH 7.2, 100 mM NaCl, 10 mM DTT, 1 mM EDTA, 0.1% 3-[(3-cholamidopropyl)-dimethylammonio]-2-hydroxy-1-propanesulfonic acid, 10% sucrose)[65] using 40 µM Ac-VEID-AFC (Ac-Val-Glu-Ile-Asp-7-Amino-4-trifluoromethylcoumarin, Enzo Life Sciences, Farmingdale, NY, USA)[64] and 10-250 nM active site titrated Casp6. Reactions were initiated by Ac-VEID-AFC addition and followed for 20 min at 37 °C in a black clear bottom 96-well microplate (Costar, Corning, NY, USA) in Synergy H4 Hybrid instrument (BioTek, Winooski, VT, USA) with excitation/emission at 380/505 nm. Released AFC was calculated from AFC standard curve (0-25 µM). Casp6 VEIDase activity (released pmol AFC/min) was calculated from the initial linear reaction part. Ac-VEID-AFC hydrolysis initial velocities were measured with 10 nM active-site titrated Casp6 and […] Ac-VEID-AFC. Initial velocities v versus substrate concentration [S] were fit to a rectangular hyperbola using Michaelis-Menten equation in GraphPad Prism 5 (GraphPad Software, La Jolla, CA, USA).
In fluorescence-based Casp6 activity assay, 10 µM Ac-VEID-AFC was added to 20 nM Casp6 in SB with 100 μM compound and 1% dimethyl sulfoxide (DMSO), and reaction rate was measured for 20 min at 37 °C as above. Compound potency was calculated by normalising Ac-VEID-AFC cleavage rate to 1% DMSO control. In colorimetric Casp6 activity assay, 200 µM Ac-VEID-pNA (N-acetyl-Val-Glu-Ile-Asp-p-nitroanilide, Enzo Life Sciences) was added to 200 nM Casp6 in SB with 100 μM compound, and Ac-VEID-pNA cleavage rate was measured at 37 °C for 30 min in clear 96-well plate (Sartstedt, Nümbrecht, Germany) using Synergy H4 plate reader at 405 nm. Absorbance was converted to the released pNA amount based on a standard curve of 0–250 µM pNA. Cleavage rates were calculated from the linear assay phase and were normalised to 1% DMSO control. In Casp6-C163A cleavage assay, 0.5 ng/µl Casp6-WT was preincubated with 100 µM inhibitor, 5 µM Q-VD-OPh or 1% DMSO in SB (30 min, RT), followed by transfer on ice, addition of 0.5 µg/µl Casp6-C163A, and incubation (37 °C, 5, 10 and 15 min). Reactions were stopped by adding SDS-PAGE sample buffer (62.5 mM Tris pH 6.8, 2% SDS, 0.1 M DTT, 0.01% Bromphenol Blue, 10% glycerol) and heating (5 min, 95 °C). Samples (2 µl) were analysed on 15% SDS-PAGE gels, proteins were stained with Coomassie blue, and gels were de-stained with 10% acetic acid. The intensities of protein bands were quantified from scanned gels using ImageJ. The band intensity of Casp6-C163A without a prodomain was plotted against the time and the Casp6-C163A cleavage rates were calculated from the slopes of linear plots. The % activity of Casp6-WT in the presence of inhibitors was calculated relative to DMSO control.
IC50 values were determined against 20 nM Casp6 active sites in fluorescence-based Casp6 activity assay with 10 µM Ac-VEID-AFC and 1 nM-500 µM inhibitor. IC50 was calculated with GraphPad Prism 5 by a nonlinear regression fit for log inhibitor vs relative Casp6 activity (% DMSO control) using a Hill slope of – 1, and top and bottom constraints of 100 and 0, respectively.

Data set [2] in a line: Ac-VEID-AFC hydrolysis kinetics of recombinant Casp6 variants (Michaelis-Menten). It counts as biochemical, human. The following applies: for Km / kcat: Ac-VEID-AFC hydrolysis, mean ± SD.
From the text: In this study, we investigated how naturally occurring rare missense variants of human CASP6 affect Casp6 activity and structure. […] A34, E35, A109, and T182 are not conserved in 12 human caspases and in Casp6 from different species (Fig. 1a,b). Recombinant Casp6-WT and the four variants were expressed in E. coli, purified, and active site titrated (Fig. S2) for functional analyses. Like Casp6-WT, Casp6 variants, underwent complete self-processing at TETD23, and TEVD193 sites, and slight self-cleavage at the DVVD179 site, generating mainly large subunit with a linker (LS-L), small subunit (SS), and a minor amount of large subunit (LS) (Fig. 1c,d).
as §1

`COC(=O)c1cc(CN)cc(NC(=O)c2ccco2)c1` [Compound C13B]: in data set [1], the “potency against Casp6 (in words)” value is recorded as “low potency” and the “% Inhibition with 100 µM compound (fluorescence assay)” value (“% Inhibition with 100 µM compound” for short) is given as 2.3 ± 3.1^a %.

Turning to `COC(=O)c1cc(CNC(=O)c2c(-c3ccccc3)noc2C)cc(NC(=O)c2ccco2)c1` [Compound C13D], in data set [1], the “% Inhibition with 100 µM compound” value is listed as 5.5 ± 4.1^a % and the “fold increase in IC50 (reduction in potency) compared to C13” value was determined as 155 fold.

Turning to `COC(=O)c1cc(CNC(=O)C(C)(C)C)cc(NC(=O)c2ccco2)c1` [Compound C13E], in data set [1], the “potency against Casp6 (in words)” value is given as “low potency” and the “% Inhibition with 100 µM compound” value is given as −8.3 ± 1.7^a %.

For the molecule `COC(=O)c1cc(CNC(=O)C2(c3ccc(Cl)cc3)CCC2)cc(NC(=O)c2ccco2)c1` [Compound C13F], in data set [1], the “% Inhibition with 100 µM compound” value was 43.2 ± 10.9^a %, the “fold increase in IC50 (reduction in potency) compared to C13” value stood at 2 fold and the IC50 came out at 27 ± 1.6 µM.

As to `COC(=O)c1cc(CNC(=O)c2cc(C)cc(C)c2)cc(NC(=O)c2ccco2)c1` [Compound C13G], in data set [1], the “% Inhibition with 100 µM compound” value is 55.5 ± 8.8^a %, the “fold increase in IC50 (reduction in potency) compared to C13” value was found to be 2 fold and the IC50 was 21.5 ± 2 µM. The “potency for Casp6 of in-house synthesised compound compared to commercial compound” value in data set [1] (synthesised in the authors' laboratory vs commercial source) is recorded as “lower potency”.

B1: Casp6-L200A: Casp6 L200A alanine mutant from full-length construct, poorly self-processed (protein, UniProt P55212 1-293, looked up, variant L200A)
chain: MSSASGLRRGHPAGGEENMTETDAFYKREMFDPAEKYKMDHRRRGIALIFNHERFFWHLTLPERRGTCADRDNLTRRFSDLGFEVKCFNDLKAEELLLKIHEVSTVSHADADCFVCVFLSHGEGNHIYAYDAKIEIQTLTGLFKGDKCHSLVGKPKIFIIQACRGNQHDVPVIPLDVVDNQTEKLDTNITEVDAASVYTAPAGADFLMCYSVAEGYYSHRETVNGSWYIQDLCEMLGKYGSSLEFTELLTLVNRKVSQRRVDFCKDPSAIGKKQVPCFASMLTKKLHFFPKSN
modifications: full-length
notes: Casp6 L200A alanine mutant from full-length construct, poorly self-processed
Turning to B1, in data set [2], the “fold higher KM compared to Casp6-WT or Casp6-WT-LS-SS” value worked out at 10 fold, the “fold reduction in kcat compared to Casp6-WT” value was 45 fold, the Km was 316 ± 162 µM and the kcat stood at 0.05 ± 0.03 s⁻¹.

B2: Casp6-L200A-LS-SS: fully processed Casp6 L200A from co-expression of large and small subunits (protein, UniProt P55212 1-293, looked up, variant L200A)
chain: B1 chain
Turning to B2, in data set [2], the “fold higher KM compared to Casp6-WT or Casp6-WT-LS-SS” value worked out at 8 fold, the Km worked out at 196 ± 84.4 µM and the kcat turned out to be 2.8 ± 0.8 s⁻¹.

B3: Casp6-K284A-LS-SS: fully processed Casp6 K284A from co-expression of large and small subunits (protein, UniProt P55212 1-293, looked up, variant K284A)
chain: B1 chain with A200L, K284A
Take B3: in data set [2], the Km was determined as 27.7 ± 2.7 µM and the kcat amounted to 2.8 ± 0.2 s⁻¹.

B4: Casp6-E35K: recombinant rare natural human Casp6 missense variant E35K (protein)
chain 1: T1 sequence (P55212 24-193 limits assumed) with E12K
chain 2: T1 sequence (P55212 194-293 limits assumed)
modifications: left off: His (from the plasmid name pET23b-Casp6-His), end not stated, state not stated
As for B4, in data set [2], the “fold reduced catalytic efficiency kcat/KM compared with Casp6-WT” value is ~ 2 fold, the Michaelis constant (Km) was 37.1 ± 4.9 µM and the turnover number (kcat) amounted to 1.71 ± 0.13 s⁻¹.
